Read-outs that look alike come from different tables or passages of the source.
Columns and labels:
[1] = biological target: isolated recombinant JAK2 kinase domain (Homo sapiens (Human), UniProt O60674); test: JAK2 enzyme assay (Caliper LabChip, Ki); type: biochemical
Procedure, shortened: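 Caliper LabChip readout of phosphorylated product as a fraction of total substrate, a fluorescently N-terminally labelled JAK3-derived peptide. Isolated human JAK kinase domains were incubated 30 min at 22 °C before EDTA quench (50 mM final).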

[2] = biological target: isolated recombinant JAK1 kinase domain (Homo sapiens (Human), UniProt P23458); test: JAK1 enzyme assay (Caliper LabChip, Ki); type: biochemical
Procedure, shortened: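 Ki derived via Morrison tight-binding model, ATP-competitive correction applied. Read-out: product/total ratio of a 5-carboxyfluorescein-tagged JAK3 peptide separated on Caliper LabChip after phosphorylation by isolated human JAK1 kinase domain (22 °C, 30 min; EDTA quench, 50 mM final).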

[3] = tested on: JAK1-dependent STAT6 phosphorylation downstream of IL-13 stimulation in BEAS-2B human bronchial epithelial cells; test: JAK1 pathway assay in BEAS-2B cells (IL-13-pSTAT6, MSD); type: cell-based; settings: Homo sapiens, BEAS-2B
[4] = BEAS-2B cells, IL-13 stimulation, read-out: IL-13 p-STAT6 BEAS-2B IC50

Chain of isolated recombinant JAK1 kinase domain (P23458 875-1153): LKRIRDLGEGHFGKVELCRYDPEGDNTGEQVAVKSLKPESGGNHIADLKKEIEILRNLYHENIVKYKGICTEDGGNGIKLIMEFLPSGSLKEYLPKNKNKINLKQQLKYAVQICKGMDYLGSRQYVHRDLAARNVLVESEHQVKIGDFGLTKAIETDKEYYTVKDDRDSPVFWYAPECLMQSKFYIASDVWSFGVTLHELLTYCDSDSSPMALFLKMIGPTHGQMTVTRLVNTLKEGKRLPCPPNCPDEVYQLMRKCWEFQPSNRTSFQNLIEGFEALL
Chain of isolated recombinant JAK2 kinase domain (O60674 849-1124): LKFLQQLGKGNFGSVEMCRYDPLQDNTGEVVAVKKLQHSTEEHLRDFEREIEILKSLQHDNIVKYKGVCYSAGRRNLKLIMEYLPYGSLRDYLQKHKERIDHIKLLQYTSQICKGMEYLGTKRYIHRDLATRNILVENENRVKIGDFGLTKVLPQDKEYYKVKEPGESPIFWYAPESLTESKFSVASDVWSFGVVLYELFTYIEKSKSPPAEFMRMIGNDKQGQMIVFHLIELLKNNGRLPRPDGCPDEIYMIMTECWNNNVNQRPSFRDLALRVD

Row | Structure (SMILES) | Ki [1] [nM] | Ki ([2]; read-out: JAK1 Ki) [nM] | IC50 [3, 4] [nM] | Ki [2] [nM] | IC50 ([3]; read-out: IL-13 p-STAT6 BEAS-2B IC50, BEAS-2B cells, IL-13 stimulation) [nM]
1 | N#CC[C@]1(n2cc(C(N)=O)c(NC(=O)C3CC3)n2)CC[C@@H](N2CC(OCc3ccccc3)(C(F)(F)F)C2)CC1 [Example 133] | 15.6 | 2.5 | 162 |  | 
2 | Cc1c(CN2CCC(CC#N)(n3cc(C(N)=O)c(NC(=O)C4CC4)n3)CC2)ccc(-c2ccccc2)c1O [Example 194, 1-[4-(cyanomethyl)-1-[(3-hydroxy-2-methyl-4-phenyl-phenyl)methyl]-4-piperidyl]-3-(cyclopropanecarbonylamino) pyrazole-4-carboxamide] | 2.2 | 0.63 | 50 |  | 
3 | COC(=O)Nc1nn(C2(CC#N)CCN(Cc3ccc(C4=CCCC4)cc3)CC2F)cc1C(N)=O (stereo not drawn) [Example 268, methyl N-[4-carbamoyl-1-[4-(cyanomethyl)-1-[[4-(cyclopenten-1-yl)phenyl]methyl]-3-fluoro-4-piperidyl]pyrazol-3-yl]carbamate] | 1.9 | 0.9 | 43 |  | 
4 | N#CCC1(n2cc(C(N)=O)c(NC(=O)C3CC3)n2)CCN(Cc2ccc(-c3ccccc3)c(O)c2)CC1 [Example 11, 1-(4-(Cyanomethyl)-1-((2-hydroxy-[1,1′-biphenyl]-4-yl)methyl)piperidin-4-yl)-3-(cyclopropanecarboxamido)-1H-pyrazole-4-carboxamide] | 1 | 0.4 | 383 |  | 
5 | COC(=O)Nc1nn(C2(CC#N)CCN(Cc3ccc(-n4nccn4)cc3)CC2)cc1C(N)=O [Example 197, methyl N-[4-carbamoyl-1-[4-(cyanomethyl)-1-[[4-(triazol-2-yl)phenyl]methyl]-4-piperidyl]pyrazol-3-yl]carbamate] | 22 | 1.2 | 65 |  | 
6 | COC(=O)Nc1nn(C2(CC#N)CCC(Nc3ccc(-c4ccco4)cc3)CC2)cc1C(N)=O (stereo not drawn) [Example 266, methyl N-[4-carbamoyl-1-[1-(cyanomethyl)-4-[4-(2-furyl)anilino]cyclohexyl]pyrazol-3-yl]carbamate] | 5 | 0.77 | 57 |  | 
7 | N#CCC1(n2cc(C(N)=O)c(NC(=O)C3CC3)n2)CCN(Cc2ccccc2Cl)CC1 [Example 58] | 42.6 | 4.4 | 287 |  | 
8 | N#CCC1(n2cc(C(N)=O)c(NC(=O)C3CC3C#N)n2)CCN(Cc2cc(O)c(-c3ccccc3)cc2F)CC1F (stereo not drawn) [Example 240, 3-[(2-cyanocyclopropanecarbonyl)amino]-1-[4-(cyanomethyl)-3-fluoro-1-[(2-fluoro-5-hydroxy-4-phenyl-phenyl)methyl]-4-piperidyl]pyrazole-4-carboxamide] | 0.29 | 0.19 | 71 |  | 
9 | N#CC[C@]1(n2cc(C(N)=O)c(NC(=O)C3CC3)n2)CC[C@@H](N2CC(F)(F)C2)CC1 [Example 178, 1-[1-(cyanomethyl)-4-(3,3-difluoroazetidin-1-yl)cyclohexyl]-3-(cyclopropanecarbonylamino) pyrazole-4-carboxamide] | 18.4 |  |  | 4.7 | 167
10 | N#CCC1(n2cc(C(N)=O)c(NC(=O)C3CC3)n2)CCN(Cc2ccc(I)cc2)CC1 [Example 55] | 31.4 | 3.2 | 98 |  | 
11 | N#CCC1(n2cc(C(N)=O)c(NC(=O)C3CC3)n2)CCN(Cc2ccccc2F)CC1 [Example 184, 1-[4-(cyanomethyl)-1-[(2-fluorophenyl)methyl]-4-piperidyl]-3-(cyclopropanecarbonylamino) pyrazole-4-carboxamide] | 160 | 90.4 | 177 |  | 
12 | N#CCC1(n2cc(C(N)=O)c(NC(=O)C3CC3)n2)CCC(Nc2ccc(-c3ccccc3)cc2)CC1 (stereo not drawn) [Example 245, 1-[1-(cyanomethyl)-4-(4-phenylanilino)cyclohexyl]-3-(cyclopropanecarbonylamino) pyrazole-4-carboxamide] | 0.92 | 0.23 | 14 |  | 
13 | C=C(C)c1ccc(CN2CCC(CC#N)(n3cc(C(N)=O)c(NC(=O)C4CC4)n3)C(F)C2)cc1 (stereo not drawn) [Example 259, 1-[4-(cyanomethyl)-3-fluoro-1-[(4-isopropenylphenyl)methyl]-4-piperidyl]-3-(cyclopropanecarbonylamino) pyrazole-4-carboxamide] | 1.8 | 0.84 | 50 |  | 
14 | N#CCC1(n2cc(C(N)=O)c(NC(=O)C3CC3)n2)CCN(Cc2ccc(-c3ccc(C(F)(F)F)cc3)nc2)CC1 [Example 166, 1-[4-(cyanomethyl)-1-[[6-[4-(trifluoromethyl)phenyl]-3-pyridyl]methyl]-4-piperidyl]-3-(cyclopropanecarbonylamino) pyrazole-4-carboxamide] | 80 | 2.2 | 68 |  | 
15 | N#CCC1(n2cc(C(N)=O)c(NC(=O)C3CC3)n2)CCN(Cc2cnc(-c3ccccc3)cc2F)CC1 [Example 202, 1-[4-(cyanomethyl)-1-[(4-fluoro-6-phenyl-3-pyridyl)methyl]-4-piperidyl]-3-(cyclopropanecarbonylamino) pyrazole-4-carboxamide] | 0.74 | 0.55 | 74 |  | 
16 | CS(=O)(=O)Nc1cccc(CN2CCC(CC#N)(n3cc(C(N)=O)c(NC(=O)C4CC4)n3)CC2)c1F [Example 78] | 4.9 | 2.9 | > 1000 |  | 
17 | COC1(C(F)(F)F)CN([C@H]2CC[C@@](CC#N)(n3cc(C(N)=O)c(NC(=O)C4CC4)n3)CC2)C1 [Example 131] | 18.7 | 2.8 | 334 |  | 
18 | N#CCC1(n2cc(C(N)=O)c(NC(=O)C3CC3)n2)CCN(Cc2ccc(-c3csc(Cl)c3)nc2)CC1 [Example 16, 1-(1-((6-(5-Chlorothiophen-3-yl)pyridin-3-yl)methyl)-4-(cyanomethyl)piperidin-4-yl)-3-(cyclopropanecarboxamido)-1H-pyrazole-4-carboxamide] | 2.4 | 0.5 | 85 |  | 
19 | COC(=O)Nc1nn(C2(CC#N)CCN(Cc3ccc(C4CC4)cc3)CC2F)cc1C(N)=O (stereo not drawn) [Example 281, methyl N-[4-carbamoyl-1-[4-(cyanomethyl)-1-[(4-cyclopropylphenyl)methyl]-3-fluoro-4-piperidyl]pyrazol-3-yl]carbamate] | 2.2 | 1.1 | 36 |  | 
20 | N#CCC1(n2cc(C(N)=O)c(NC(=O)C3CC3)n2)CCN(Cc2ccc(-c3ncco3)cc2)CC1F (stereo not drawn) [Example 255, 1-[4-(cyanomethyl)-3-fluoro-1-[(4-oxazol-2-ylphenyl)methyl]-4-piperidyl]-3-(cyclopropanecarbonylamino) pyrazole-4-carboxamide] | 0.96 | 1.2 | 70 |  | 
21 | N#CCC1(n2cc(C(N)=O)c(NC(=O)C3CC3)n2)CCN(CC(F)(F)F)CC1 [Example 23] | 19.4 | 4.5 | 250 |  | 
22 | COC(=O)Nc1nn(C2(CC#N)CCN(Cc3cc(O)cc(F)c3)CC2F)cc1C(N)=O (stereo not drawn) [Example 293, methyl N-[4-carbamoyl-1-[4-(cyanomethyl)-3-fluoro-1-[(3-fluoro-5-hydroxy-phenyl)methyl]-4-piperidyl]pyrazol-3-yl]carbamate] | 0.34 | 0.3 | 55 |  | 
23 | N#CCC1(n2cc(C(N)=O)c(NC(=O)C3CC3)n2)CCN(Cc2cc(O)c(-c3ccccc3)cc2F)CC1F (stereo not drawn) [Example 207, 1-[4-(cyanomethyl)-3-fluoro-1-[(2-fluoro-5-hydroxy-4-phenyl-phenyl)methyl]-4-piperidyl]-3-(cyclopropanecarbonylamino) pyrazole-4-carboxamide] | 0.13 | 0.11 | 29 |  | 
24 | CCc1ccc(-c2ccc(CN3CCC(CC#N)(n4cc(C(N)=O)c(NC(=O)C5CC5)n4)C(F)C3)cc2O)cc1 (stereo not drawn) [Example 212, 1-[4-(cyanomethyl)-1-[[4-(4-ethylphenyl)-3-hydroxy-phenyl]methyl]-3-fluoro-4-piperidyl]-3-(cyclopropanecarbonylamino) pyrazole-4-carboxamide] | 0.3 | 0.22 | 27 |  | 
25 | CCS(=O)(=O)Nc1cccc(CN2CCC(CC#N)(n3cc(C(N)=O)c(NC(=O)C4CC4)n3)CC2)c1 [Example 75] | 14 | 2.7 | > 1000 |  | 
26 | COc1ccc(-c2ccc(CN3CCC(CC#N)(n4cc(C(N)=O)c(NC(=O)C5CC5)n4)CC3)cc2)cc1 [Example 153, 1-[4-(cyanomethyl)-1-[[4-(4-methoxyphenyl)phenyl]methyl]-4-piperidyl]-3-(cyclopropanecarbonylamino) pyrazole-4-carboxamide] | 30.8 | 1.1 | 103 |  | 
27 | N#CCC1(n2cc(C(N)=O)c(NC(=O)C3CC3)n2)CCN(Cc2ccc(-c3ccccc3)c(C#N)c2)CC1 [Example 161, 1-[4-(cyanomethyl)-1-[(3-cyano-4-phenyl-phenyl)methyl]-4-piperidyl]-3-(cyclopropanecarbonylamino) pyrazole-4-carboxamide] | 35.3 | 5.5 | 1010 |  | 
28 | COC(=O)Nc1nn(C2(CC#N)CCN(Cc3cc(O)ccc3Cl)CC2F)cc1C(N)=O (stereo not drawn) [Example 273, methyl N-[4-carbamoyl-1-[1-[(2-chloro-5-hydroxy-phenyl)methyl]-4-(cyanomethyl)-3-fluoro-4-piperidyl]pyrazol-3-yl]carbamate] | 0.31 | 0.33 | 75 |  | 

— patent US11731943B2, “Therapeutic compounds, compositions and methods of use thereof” (priority 2016, dated 2023)
